In the first assay the target is T1, human Fatty Acid Synthase (Homo sapiens, UniProt P49327).
T1 construct: made in house
T1 sequence (P49327 whole entry): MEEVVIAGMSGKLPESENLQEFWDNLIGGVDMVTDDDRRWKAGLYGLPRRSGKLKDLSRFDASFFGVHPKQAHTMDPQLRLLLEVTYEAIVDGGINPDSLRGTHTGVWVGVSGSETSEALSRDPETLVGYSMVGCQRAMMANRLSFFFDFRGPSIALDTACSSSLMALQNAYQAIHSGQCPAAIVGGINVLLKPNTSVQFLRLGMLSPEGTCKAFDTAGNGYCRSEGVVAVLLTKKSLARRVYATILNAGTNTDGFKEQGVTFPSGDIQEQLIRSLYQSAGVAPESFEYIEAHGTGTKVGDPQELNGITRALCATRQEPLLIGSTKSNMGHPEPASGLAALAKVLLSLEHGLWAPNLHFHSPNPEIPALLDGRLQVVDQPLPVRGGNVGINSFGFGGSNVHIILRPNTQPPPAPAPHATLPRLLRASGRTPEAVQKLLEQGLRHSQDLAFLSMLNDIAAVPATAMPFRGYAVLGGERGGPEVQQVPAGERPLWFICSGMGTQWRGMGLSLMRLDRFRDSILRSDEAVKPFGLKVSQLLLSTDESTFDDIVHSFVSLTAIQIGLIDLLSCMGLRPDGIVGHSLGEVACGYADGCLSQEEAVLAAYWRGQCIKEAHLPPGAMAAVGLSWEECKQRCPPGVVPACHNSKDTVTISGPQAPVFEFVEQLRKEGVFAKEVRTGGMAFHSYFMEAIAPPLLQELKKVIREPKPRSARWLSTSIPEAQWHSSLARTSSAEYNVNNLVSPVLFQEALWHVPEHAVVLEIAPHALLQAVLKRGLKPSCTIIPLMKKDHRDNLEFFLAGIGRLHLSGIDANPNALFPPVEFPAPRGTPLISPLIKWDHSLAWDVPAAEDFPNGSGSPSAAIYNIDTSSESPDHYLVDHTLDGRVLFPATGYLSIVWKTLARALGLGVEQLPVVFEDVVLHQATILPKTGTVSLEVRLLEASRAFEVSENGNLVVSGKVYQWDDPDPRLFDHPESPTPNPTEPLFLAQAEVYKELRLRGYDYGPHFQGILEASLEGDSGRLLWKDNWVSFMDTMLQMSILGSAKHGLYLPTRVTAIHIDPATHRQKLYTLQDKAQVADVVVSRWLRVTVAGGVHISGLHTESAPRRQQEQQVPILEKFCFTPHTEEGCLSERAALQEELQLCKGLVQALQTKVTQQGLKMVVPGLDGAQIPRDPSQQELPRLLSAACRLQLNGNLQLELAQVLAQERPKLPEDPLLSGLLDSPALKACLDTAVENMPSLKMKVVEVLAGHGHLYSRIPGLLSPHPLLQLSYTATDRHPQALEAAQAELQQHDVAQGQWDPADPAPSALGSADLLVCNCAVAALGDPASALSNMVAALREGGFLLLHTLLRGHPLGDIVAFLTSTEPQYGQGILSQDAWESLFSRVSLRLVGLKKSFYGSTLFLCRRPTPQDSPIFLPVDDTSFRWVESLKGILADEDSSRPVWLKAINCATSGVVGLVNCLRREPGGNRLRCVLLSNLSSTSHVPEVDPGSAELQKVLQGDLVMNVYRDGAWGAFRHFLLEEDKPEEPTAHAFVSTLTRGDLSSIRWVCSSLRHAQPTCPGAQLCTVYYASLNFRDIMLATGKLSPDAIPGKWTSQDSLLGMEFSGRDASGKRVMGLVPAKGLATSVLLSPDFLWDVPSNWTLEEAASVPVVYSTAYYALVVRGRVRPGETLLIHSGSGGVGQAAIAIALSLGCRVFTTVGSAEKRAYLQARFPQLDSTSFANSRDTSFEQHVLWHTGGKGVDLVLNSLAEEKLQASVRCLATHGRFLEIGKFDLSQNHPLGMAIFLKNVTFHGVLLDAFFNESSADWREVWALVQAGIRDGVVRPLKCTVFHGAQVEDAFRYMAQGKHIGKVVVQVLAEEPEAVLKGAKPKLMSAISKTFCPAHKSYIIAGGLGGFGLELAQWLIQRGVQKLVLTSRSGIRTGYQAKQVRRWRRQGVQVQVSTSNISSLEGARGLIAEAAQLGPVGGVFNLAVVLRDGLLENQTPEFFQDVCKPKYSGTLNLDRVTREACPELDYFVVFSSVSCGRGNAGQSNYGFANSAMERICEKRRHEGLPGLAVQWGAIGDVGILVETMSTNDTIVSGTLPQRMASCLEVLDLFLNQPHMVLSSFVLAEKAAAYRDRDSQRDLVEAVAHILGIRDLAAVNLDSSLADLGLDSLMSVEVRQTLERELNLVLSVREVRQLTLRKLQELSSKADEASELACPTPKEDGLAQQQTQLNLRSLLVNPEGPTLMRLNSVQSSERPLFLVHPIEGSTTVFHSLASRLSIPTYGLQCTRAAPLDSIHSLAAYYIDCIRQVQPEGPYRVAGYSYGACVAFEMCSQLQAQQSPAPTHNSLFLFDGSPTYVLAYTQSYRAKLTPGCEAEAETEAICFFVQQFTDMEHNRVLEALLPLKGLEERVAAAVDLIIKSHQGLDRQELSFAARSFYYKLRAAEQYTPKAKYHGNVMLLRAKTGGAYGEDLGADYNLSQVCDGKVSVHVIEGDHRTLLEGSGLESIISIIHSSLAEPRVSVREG
Put plainly: Human FAS enzyme assay (decrease in NADPH fluorescence). Type of assay: biochemical. The conditions noted are these: % inhibition at a concentration of 100 micromolar. The method, boiled down:
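Readout: decrease in NADPH fluorescence (340 nm ex, 460 nm em) after 60 min at RT, background-subtracted against a read taken before substrate. Substrate mix contained 500 μM malonyl-CoA and 150 μM acetyl-CoA. It was added after 15 min enzyme (0.4 μg in-house human FAS)–compound–NADPH preincubation in Tris pH 7.5 buffer; % inhibition was fitted to IC50.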
For the compound `Cc1ccc(NS(=O)(=O)c2ccc(Cl)s2)cc1C(=O)N1CCC(c2ccc(C#N)cc2)CC1` [Example 45, 5-chloro-N-[3-[4-(4-cyanophenyl)piperidine-1-carbonyl]-4-methyl-phenyl]thiophene-2-sulfonamide], the inhibition at 100 µM was found to be 83%.

In turn, `CCCCOc1ccc(S(=O)(=O)Nc2ccc(C)c(C(=O)N3CCC(c4ccc(C#N)cc4)CC3)c2)cc1` [Example 198, 4-butoxy-N-[3-[4-(4-cyanophenyl)piperidine-1-carbonyl]-4-methylphenyl]benzene-sulfonamide] yielded an inhibition at 100 µM of 71%.

Compound `Cc1ccc(C(=O)N2CCC(c3ccc(CCC(=O)O)cc3)CC2)cc1NS(=O)(=O)C1CCCCC1` [Example 244, 3-[4-[1-[3-(cyclohexylsulfonylamino)-4-methylbenzoyl]piperidin-4-yl]phenyl]propanoic acid] returned an inhibition at 100 µM of 92.3%.

Take `CCCCS(=O)(=O)Nc1cc(C(=O)N2CCC(c3ccc(C#N)cc3)CC2)ccc1C` [Example 12, N-[5-[4-(4-cyanophenyl)piperidine-1-carbonyl]-2-methyl-phenyl]butane-1-sulfonamide]: the inhibition at 100 µM is 90%.

For `CS(=O)(=O)c1ccc(C(=O)N2CCC(c3ccc(C#N)cc3)CC2)cc1NS(=O)(=O)Cc1ccccc1` [Example 135, N-[5-[4-(4-cyanophenyl)piperidine-1-carbonyl]-2-methylsulfonyl-phenyl]-1-phenyl-methanesulfonamide], the inhibition at 100 µM amounted to 100%.

As to `Cc1ccc(C(=O)N2CCC(c3ccc(S(=O)(=O)NCCO)cc3)CC2)cc1NS(C)(=O)=O` [Example 220, N-(2-hydroxyethyl)-4-[1-(3-methanesulfonamido-4-methylbenzoyl)piperidin-4-yl]benzenesulfonamide], the inhibition at 100 µM is 85%.

Turning to `Cc1ccc(C(=O)N2CCC(c3ccc(C#N)cc3)CC2)cc1NS(=O)(=O)C1CCN(C(C)C)CC1` [Example 120, N-[5-[4-(4-cyanophenyl)piperidine-1-carbonyl]-2-methyl-phenyl]-1-propan-2-yl-piperidine-4-sulfonamide], at 100 µM the inhibition was 94%.

`Cc1ccc(NS(=O)(=O)CC2CCCC2)cc1C(=O)N1CCC(c2ccc(C#N)cc2)CC1` [Example 43, N-[3-[4-(4-cyanophenyl)piperidine-1-carbonyl]-4-methyl-phenyl]-1-cyclopentyl-methanesulfonamide] yielded an inhibition at 100 µM of 93%.

The compound `Cc1ccc(C(=O)N2CCC(c3ccc(C#N)cc3)CC2)cc1NS(=O)(=O)c1ccc(C#N)cc1` [Example 23, 4-cyano-N-[5-[4-(4-cyanophenyl)piperidine-1-carbonyl]-2-methyl-phenyl]benzenesulfonamide] registered an inhibition at 100 µM of 89%.

Still in this assay, the particulars now being: compounds excluded from the claims by proviso.
Consider `COc1ccccc1C1CCN(C(=O)c2ccc(C)c(NS(C)(=O)=O)c2)CC1` [N-[5-[4-(2-methoxyphenyl)piperidine-1-carbonyl]-2-methylphenyl]methanesulfonamide], for which the “IC50s in the range of about 0.001 μM to about 30 μM” value (from here on “IC50s in the range”) is recorded as “do not have IC50s in the range of about 0.001 μM to about 30 μM”.

With `Cc1ccc(C(=O)N2CCC(c3ccc(C(=O)N4CCCN(C)CC4)cc3)CC2)cc1NS(C)(=O)=O` [N-[2-methyl-5-[4-[4-(4-methyl1,4-diazepane-1-carbonyl)phenyl]piperidine-1-carbonyl]phenyl]methanesulfonamide], the “IC50s in the range” value was “do not have IC50s in the range of about 0.001 μM to about 30 μM”.

On to `Cc1ccc(C(=O)N2CCC(c3cccc(-c4cncs4)c3)CC2)cc1NS(C)(=O)=O` [N-[2-methyl-5-[4-[3-(1,3-thiazol-5-yl)phenyl]piperidine-1-carbonyl]phenyl]methanesulfonamide], for which the “IC50s in the range” value was “do not have IC50s in the range of about 0.001 μM to about 30 μM”.

In the case of `Cc1ccc(C(=O)N2CCC(c3ccc(C#N)c(C(F)(F)F)c3)CC2)cc1NS(C)(=O)=O` [N-[5-[4-[4-cyano-3-(trifluoromethyl)phenyl]piperidine-1-carbonyl]-2-methylphenyl]methanesulfonamide], the “IC50s in the range” value was “do not have IC50s in the range of about 0.001 μM to about 30 μM”.

Values taken from US20090105305A1, “Therapeutic Agents - 550” (AstraZeneca AB, priority 2006, published 2009).
